Molecules are shown by their SMILES.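 A five-concentration, 48-hour dose response in 96-well plates underlies each endpoint, interpolated linearly between surrounding concentrations. At the TGI there is no net growth.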 A value given as a limit tells only on which side of the number the result lay.

Here are results for eight compounds from PubChem BioAssay (NCI).

Test systems include DLD-1 colon; DMS 114 small cell lung; DMS 273 small cell lung; HOP-18 NSCLC; KM20L2 colon; M19-MEL melanoma; P388 leukemia; P388/ADR leukemia; SN12K1 renal; LXFL 529 NSCLC; RXF-631 renal.
What all share (experiment): NCI tumour cell line growth inhibition, 48 h

In the case of `COc1ccc(CC(N)=O)cc1OC`, the TGI with DLD-1 colon, with DMS 114 small cell lung, with DMS 273 small cell lung, in the experiment on HOP-18 NSCLC, in the experiment with KM20L2 colon and in the experiment on M19-MEL melanoma was over 1250 µM throughout. In addition, the TGI with P388 leukemia, in the experiment with P388/ADR leukemia and with SN12K1 renal was over 1250 µM throughout.

On to `O[C@H]1[C@H](O)[C@@H](O)CN2CC[C@H](O)[C@H]12`, for which the TGI in the experiment with DLD-1 colon was over 100 µM; with DMS 114 small cell lung, over 100 µM; with DMS 273 small cell lung, over 100 µM; in the experiment on HOP-18 NSCLC, over 100 µM; in the experiment with KM20L2 colon it was over 100 µM; with M19-MEL melanoma, over 79.4 µM. The TGI in the experiment with P388 leukemia, in the experiment on P388/ADR leukemia and in the experiment on SN12K1 renal was over 100 µM each time.

As for `CCOC(=O)/C=C1/C(CCCOCc2ccccc2)C2CCCC23CC2(CCN13)OCCO2` (stereo not drawn), the TGI in the experiment with DLD-1 colon was 73.3 µM; in the experiment with DMS 114 small cell lung, 32.9 µM; with DMS 273 small cell lung it was 37.9 µM; in the experiment with HOP-18 NSCLC it was 50 µM; with KM20L2 colon, 56 µM; with LXFL 529 NSCLC, 90.2 µM. Further, the TGI with M19-MEL melanoma amounted to 40 µM; with RXF-631 renal it was 94.6 µM.

For the compound `Nc1c(S(=O)(=O)c2ccc(Cl)cc2)c2nc3ccccc3nc2n2ccnc12`, the TGI in the experiment on DLD-1 colon was over 100 µM; with DMS 114 small cell lung, over 100 µM; with DMS 273 small cell lung, over 100 µM; with HOP-18 NSCLC, 79.3 µM; in the experiment with LXFL 529 NSCLC, over 100 µM; with M19-MEL melanoma it was over 100 µM.

As for `O=C1NC(O)CCN1C1OC(CO)C(O)C1O` (stereo not drawn), the TGI is over 250 µM with DLD-1 colon; over 250 µM with DMS 114 small cell lung; over 250 µM in the experiment on DMS 273 small cell lung; over 250 µM in the experiment with HOP-18 NSCLC; over 127 µM in the experiment on KM20L2 colon; over 250 µM with M19-MEL melanoma. The TGI with P388 leukemia, in the experiment with P388/ADR leukemia and in the experiment with SN12K1 renal was over 250 µM in each case.

As for `CN1Cc2c(nc(-c3ccccc3)c[n+]2[O-])N(C)C1`, the TGI with DLD-1 colon, in the experiment with DMS 114 small cell lung, in the experiment with DMS 273 small cell lung, in the experiment with HOP-18 NSCLC, in the experiment with KM20L2 colon and with LXFL 529 NSCLC was over 100 µM each time. The TGI in the experiment with M19-MEL melanoma and in the experiment with RXF-631 renal was over 100 µM each time.

Consider `C=C(CN(C)C)C(=O)c1ccc(C(=O)C(=C)CN(C)C)cc1`, for which the TGI in the experiment with DLD-1 colon, with HOP-18 NSCLC, in the experiment with KM20L2 colon, in the experiment on LXFL 529 NSCLC and with M19-MEL melanoma was over 100 µM in each case.

In the case of `COc1cc(C2c3cc4c(cc3[C@@H](Nc3ccccc3)C3COC(=O)[C@H]23)OCO4)cc(OC)c1O` (stereo partly drawn), the TGI was 6.64 µM in the experiment with DLD-1 colon; 3.42 µM with DMS 114 small cell lung; 3.35 µM with DMS 273 small cell lung; 22.6 µM with HOP-18 NSCLC; over 23.3 µM in the experiment on KM20L2 colon; 16.6 µM with M19-MEL melanoma. Further, the TGI was 2.35 µM in the experiment with P388 leukemia, 4.59 µM in the experiment with P388/ADR leukemia and 8.65 µM in the experiment with SN12K1 renal.
